Assay results reported in publication PMC4226840, “An open-label study to determine the maximum tolerated dose of the multitargeted tyrosine kinase inhibitor CEP-11981 in patients with advanced cancer” (Investigational New Drugs, 2014).

Columns and labels:
[1] = test system: advanced, relapsed/refractory solid tumors; assay: Tumor response (RECIST) in phase I patients; assay type: in vivo, human
Description: The primary measures were MTD and DLTs. MTD was defined as the highest dose at which one-third or fewer of patients in a cohort experienced a DLT, which included grade ≥ 2 proteinuria, grade ≥ 3 nonhematologic toxicity (excluding hypertension and pain), grade ≥ 3 thrombocytopenia with bleeding, or grade 4 hematologic toxicity that was not clearly due to progressive cancer. Secondary measures included the pharmacokinetics of CEP-11981 after a single dose and multiple doses, the pharmacokinetic-pharmacodynamic profile of CEP-11981, safety, and preliminary efficacy. The efficacy endpoint was the proportion of patients who achieved complete or partial response on study (minimum of 6 weeks) according to Response Evaluation Criteria in Solid Tumors (RECIST) guidelines.

[2] = test system: proto-oncogene c-SRC; design: method as in PMID 22148921; settings: cited from earlier work
[3] = test system: VEGFR-1; design: method as in PMID 22148921; settings: in vitro; cited from earlier work
[4] = test system: Tie-2; design: method as in PMID 22148921; settings: cited from earlier work
[5] = molecular target: fibroblast growth factor receptor-1; design: method as in PMID 22148921; settings: cited from earlier work
[6] = Plasma pharmacokinetics in patients, single and multiple doses; assay type: in vivo, human; settings: for Mean (SD) Robs (observed accumulation ratio): multiple doses, AUCτ day 15/AUC0–24 day 1; for Mean (SD) Rpred (predicted accumulation ratio): AUC0–∞/AUC0–24 day 1
Procedure: Pharmacokinetic parameters calculated after multiple doses included AUC0-t, Cmax, Tmax, and t½, and observed accumulation ratio (Robs). […] Pharmacodynamics was assessed by VEGFR-2/KDR inhibitory activity in response to CEP-11981 treatment. […] The venous blood samples for pharmacokinetic-pharmacodynamic analysis were collected on days 1 and 15 of dosing during cycle 1 immediately before dose administration and at 1 h postdose, and on day 43. At each draw, 2 samples were obtained in 6-mL sodium heparinized vacutainers. Plasma was obtained and stored at −70 °C until shipment to the sponsor for analysis.

[7] = of 37 patients evaluated for tumor response
[8] = multiple doses (day 15, cycle 1), oral once daily, 3.0 mg/m^2, n = 3
[9] = multiple doses (day 15, cycle 1), oral once daily, 4.2 mg/m^2, n = 3
[10] = multiple doses (day 15, cycle 1), oral once daily, 5.9 mg/m^2, n = 5
[11] = multiple doses (day 15, cycle 1), oral once daily, 11.8 mg/m^2, n = 3
[12] = multiple doses (day 15, cycle 1), oral once daily, 19.7 mg/m^2, n = 3
[13] = multiple doses (day 15, cycle 1), oral once daily, 29.6 mg/m^2, n = 4
[14] = multiple doses (day 15, cycle 1), oral once daily, 41.4 mg/m^2, n = 3
[15] = multiple doses (day 15, cycle 1), oral once daily, 55.0 mg/m^2, n = 4
[16] = multiple doses (day 15, cycle 1), oral once daily, 73.0 mg/m^2, n = 3
[17] = multiple doses (day 15, cycle 1), oral once daily, 126.6 mg/m^2, n = 2
[18] = single dose, oral, 3.0 mg/m^2, n = 3
[19] = single dose, oral, 4.2 mg/m^2, n = 3
[20] = single dose, oral, 5.9 mg/m^2, n = 5
[21] = single dose, oral, 11.8 mg/m^2, n = 3
[22] = single dose, oral, 19.7 mg/m^2, n = 3
[23] = single dose, oral, 29.6 mg/m^2, n = 4
[24] = single dose, oral, 41.4 mg/m^2, n = 3
[25] = single dose, oral, 55.0 mg/m^2, n = 5
[26] = single dose, oral, 73.0 mg/m^2, n = 3
[27] = single dose, oral, 126.6 mg/m^2, n = 2

Substance: 11-(2-methylpropyl)-12,13-dihydro-2-methyl-8-(pyrimidin-2-ylamino)-4H-indazolo[5,4-a]pyrrolo[3,4-c]carbazol-4-one [CEP-11981]
- Complete or partial response (RECIST) ([1]; all cohorts): no enrolled patients had complete or partial response
- Frequency of stable disease ([1]; cohorts receiving ≤ 55.0 mg/m^2 (11 of 29 patients)): 37.9%
- Frequency of stable disease ([1]; cohorts receiving ≥ 73.0 mg/m^2 (8 of 14 patients)): 57.1%
- Patients with stable disease at ≥ 6 weeks ([1]; intent-to-treat population (19 of 43 patients)): 44%
- Patients with disease progression [1, 7]: 18 patients
- Patients with stable disease at ≥ 6 weeks [1, 7]: 51%
- IC50 [2]: 37 nM
- IC50 [3]: 3 nM
- IC50 [4]: 22 nM
- IC50 [5]: 13 nM
- Mean (SD) AUC0-24 ([6]; human, in vivo, po, 97.4 mg/m2): 5,320.4 (1,459.11) ng•hr/mL
- Mean (SD) Cmax ([6]; human, in vivo, po, 97.4 mg/m2): 526.4 (185.68) ng/mL
- Mean (SD) t½ ([6]; human, in vivo, po, 97.4 mg/m2): 10.3 (4.59) hr
- Median (range) Tmax ([6]; human, in vivo, po, 97.4 mg/m2): 4.0 (2.0–6.0) hr
- Mean (SD) AUCτ [6, 8]: 165.3 (82.98) ng•hr/mL
- Mean (SD) Cmax [6, 8]: 16.1 (2.35) ng/mL
- Mean (SD) t½ [6, 8]: 8.0 (2.92) hr
- Median (range) Tmax [6, 8]: 2.9 (1.5–4.0) hr
- Mean (SD) AUCτ [6, 9]: 201.7 (46.72) ng•hr/mL
- Mean (SD) Cmax [6, 9]: 24.3 (9.23) ng/mL
- Mean (SD) t½ [6, 9]: 9.9 (4.55) hr
- Median (range) Tmax [6, 9]: 3.9 (1.5–4.0) hr
- Mean (SD) AUCτ [6, 10]: 278.0 (69.45) ng•hr/mL
- Mean (SD) Cmax [6, 10]: 32.4 (8.40) ng/mL
- Mean (SD) t½ [6, 10]: 6.6 (1.51) hr
- Median (range) Tmax [6, 10]: 3.0 (1.3–6.0) hr
- Mean (SD) AUCτ [6, 11]: 763.7 (128.14) ng•hr/mL
- Mean (SD) Cmax [6, 11]: 98.1 (5.64) ng/mL
- Mean (SD) t½ [6, 11]: 12.3 (9.70) hr
- Median (range) Tmax [6, 11]: 2.0 (1.6–2.1) hr
- Mean (SD) AUCτ [6, 12]: 1,102.3 (734.79) ng•hr/mL
- Mean (SD) Cmax [6, 12]: 128.5 (98.34) ng/mL
- Mean (SD) t½ [6, 12]: 5.4 (1.20) hr
- Median (range) Tmax [6, 12]: 4.0 (1.5–4.0) hr
- Mean (SD) AUCτ [6, 13]: 2,923.5 (2,939.79) ng•hr/mL
- Mean (SD) Cmax [6, 13]: 218.8 (130.35) ng/mL
- Mean (SD) t½ [6, 13]: 8.7 (5.74) hr
- Median (range) Tmax [6, 13]: 4.5 (2.0–8.0) hr
- Mean (SD) AUCτ [6, 14]: 3,256.0 (1,816.44) ng•hr/mL
- Mean (SD) Cmax [6, 14]: 412.6 (93.94) ng/mL
- Mean (SD) t½ [6, 14]: 10.3 (6.33) hr
- Median (range) Tmax [6, 14]: 2.1 (1.7–3.1) hr
- Mean (SD) AUCτ [6, 15]: 4,313.3 (1,091.33) ng•hr/mL
- Mean (SD) Cmax [6, 15]: 320.7 (75.09) ng/mL
- Mean (SD) t½ [6, 15]: 12.8 (4.32) hr
- Median (range) Tmax [6, 15]: 5.2 (3.0–8.0) hr
- Mean (SD) AUCτ [6, 16]: 9,429.0 (3,993.74) ng•hr/mL
- Mean (SD) Cmax [6, 16]: 713.0 (30.38) ng/mL
- Mean (SD) t½ [6, 16]: 13.9 (9.48) hr
- Median (range) Tmax [6, 16]: 3.3 (3.1–3.5) hr
- Mean (SD) AUCτ [6, 17]: 23,565.0 (0) ng•hr/mL
- Mean (SD) Cmax [6, 17]: 1,481.5 (0) ng/mL
- Mean (SD) t½ [6, 17]: 14.7 (0) hr
- Median (range) Tmax [6, 17]: 8.0 (8.0–8.0) hr
- Mean (SD) Robs (observed accumulation ratio) ([6]; oral once daily, 3.0 mg/m^2, n = 3): 1.3 (0.62)
- Mean (SD) Robs (observed accumulation ratio) ([6]; oral once daily, 4.2 mg/m^2, n = 3): 1.8 (0.64)
- Mean (SD) Robs (observed accumulation ratio) ([6]; oral once daily, 5.9 mg/m^2, n = 5): 1.5 (0.59)
- Mean (SD) Robs (observed accumulation ratio) ([6]; oral once daily, 11.8 mg/m^2, n = 3): 1.5 (0.15)
- Mean (SD) Robs (observed accumulation ratio) ([6]; oral once daily, 19.7 mg/m^2, n = 3): 1.2 (0.29)
- Mean (SD) Robs (observed accumulation ratio) ([6]; oral once daily, 29.6 mg/m^2, n = 4): 1.1 (1.24)
- Mean (SD) Robs (observed accumulation ratio) ([6]; oral once daily, 41.4 mg/m^2, n = 3): 1.3 (0.46)
- Mean (SD) Robs (observed accumulation ratio) ([6]; oral once daily, 55.0 mg/m^2, n = 4): 1.9 (0.19)
- Mean (SD) Robs (observed accumulation ratio) ([6]; oral once daily, 73.0 mg/m^2, n = 3): 1.9 (0.14)
- Mean (SD) AUC0-24 [6, 18]: 127.0 (16.09) ng•hr/mL
- Mean (SD) Cmax [6, 18]: 13.7 (6.14) ng/mL
- Mean (SD) t½ [6, 18]: 8.0 (2.82) hr
- Median (range) Tmax [6, 18]: 6.0 (2.0–6.1) hr
- Mean (SD) Rpred (predicted accumulation ratio) [6, 18]: 1.2 (0.15)
- Mean (SD) AUC0-24 [6, 19]: 119.3 (14.36) ng•hr/mL
- Mean (SD) Cmax [6, 19]: 16.8 (4.88) ng/mL
- Mean (SD) t½ [6, 19]: 7.8 (3.69) hr
- Median (range) Tmax [6, 19]: 4.0 (1.0–6.0) hr
- Mean (SD) Rpred (predicted accumulation ratio) [6, 19]: 1.2 (0.12)
- Mean (SD) AUC0-24 [6, 20]: 194.8 (66.56) ng•hr/mL
- Mean (SD) Cmax [6, 20]: 26.0 (6.53) ng/mL
- Mean (SD) t½ [6, 20]: 5.9 (1.06) hr
- Median (range) Tmax [6, 20]: 2.1 (1.5–4.0) hr
- Mean (SD) Rpred (predicted accumulation ratio) [6, 20]: 1.1 (0.05)
- Mean (SD) AUC0-24 [6, 21]: 516.7 (125.82) ng•hr/mL
- Mean (SD) Cmax [6, 21]: 84.9 (23.01) ng/mL
- Mean (SD) t½ [6, 21]: 6.0 (3.66) hr
- Median (range) Tmax [6, 21]: 1.6 (1.5–3.0) hr
- Mean (SD) Rpred (predicted accumulation ratio) [6, 21]: 1.1 (0.12)
- Mean (SD) AUC0-24 [6, 22]: 874.0 (357.79) ng•hr/mL
- Mean (SD) Cmax [6, 22]: 135.7 (76.46) ng/mL
- Mean (SD) t½ [6, 22]: 5.1 (1.33) hr
- Median (range) Tmax [6, 22]: 4.0 (1.0–4.3) hr
- Mean (SD) Rpred (predicted accumulation ratio) [6, 22]: 1.0 (0.06)
- Mean (SD) AUC0-24 [6, 23]: 2,376.3 (2,064.06) ng•hr/mL
- Mean (SD) Cmax [6, 23]: 266.9 (181.95) ng/mL
- Mean (SD) t½ [6, 23]: 8.5 (5.48) hr
- Median (range) Tmax [6, 23]: 2.3 (1.0–3.1) hr
- Mean (SD) Rpred (predicted accumulation ratio) [6, 23]: 1.2 (0.22)
- Mean (SD) AUC0-24 [6, 24]: 2,820.3 (2,070.39) ng•hr/mL
- Mean (SD) Cmax [6, 24]: 351.9 (94.39) ng/mL
- Mean (SD) t½ [6, 24]: 8.1 (4.54) hr
- Median (range) Tmax [6, 24]: 2.0 (1.0–4.0) hr
- Mean (SD) Rpred (predicted accumulation ratio) [6, 24]: 1.2 (0.21)
- Mean (SD) AUC0-24 [6, 25]: 2,274.0 (666.44) ng•hr/mL
- Mean (SD) Cmax [6, 25]: 251.9 (119.68) ng/mL
- Mean (SD) t½ [6, 25]: 9.5 (2.57) hr
- Median (range) Tmax [6, 25]: 3.0 (3.0–4.0) hr
- Mean (SD) Rpred (predicted accumulation ratio) [6, 25]: 1.2 (0.11)
- Mean (SD) AUC0-24 [6, 26]: 3,938.7 (1,965.70) ng•hr/mL
- Mean (SD) Cmax [6, 26]: 444.2 (149.44) ng/mL
- Mean (SD) t½ [6, 26]: 8.1 (2.19) hr
- Median (range) Tmax [6, 26]: 4.0 (3.0–4.1) hr
- Mean (SD) Rpred (predicted accumulation ratio) [6, 26]: 1.2 (0.10)
- Mean (SD) AUC0-24 [6, 27]: 5,767.0 (0) ng•hr/mL
- Mean (SD) Cmax [6, 27]: 751.2 (41.49) ng/mL
- Median (range) Tmax [6, 27]: 5.0 (2.0–8.0) hr
